Laboratory results published in ChEMBL document CHEMBL2321741, “Discovery and optimization of potent broad-spectrum arenavirus inhibitors derived from benzimidazole” (Bioorg Med Chem Lett, 2013).
The source made the active and inactive calls. No cut-off for these calls is given here.

Columns and labels:
Lassa virus [1] = test: Antiviral activity against Lassa virus infected in guinea pig strain 13 assessed as host survival rate at 80 mg/kg/day, ip administered at 1 hr prior to infection for 14 days relative to control; type: functional, Mammarenavirus lassaense; conditions: route intraperitoneal
Lassa virus [2] = test: Antiviral activity against Lassa virus pseudovirions infected in HEK293T/17 cells after 72 hrs by luciferase reporter gene assay; type: functional, organism-based; conditions: Mammarenavirus lassaense, HEK-293T
Sabia virus = test: Antiviral activity against Sabia virus pseudovirions infected in HEK293T/17 cells after 72 hrs by luciferase reporter gene assay; type: functional, cell-based; conditions: HEK-293T
Guanarito virus = test: Antiviral activity against Guanarito virus pseudovirions infected in HEK293T/17 cells after 72 hrs by luciferase reporter gene assay; type: functional, cell-based; conditions: Mammarenavirus guanaritoense, HEK-293T
Lassa virus [3] = test: Antiviral activity against Lassa virus infected in guinea pig strain 13 assessed as host survival rate at 25 mg/kg/day, ip administered at 1 hr prior to infection for 14 days relative to control; type: functional, Mammarenavirus lassaense; conditions: route intraperitoneal
Junin virus = test: Antiviral activity against Junin virus pseudovirions infected in HEK293T/17 cells after 72 hrs by luciferase reporter gene assay; type: functional, organism-based; conditions: Mammarenavirus juninense, HEK-293T
Machupo mammarenavirus = test: Antiviral activity against Machupo virus pseudovirions infected in HEK293T/17 cells after 72 hrs by luciferase reporter gene assay; type: functional, cell-based; conditions: Mammarenavirus machupoense, HEK-293T
Lassa virus [4] = test: Antiviral activity against Lassa virus infected in guinea pig strain 13 assessed as reduction in viral titre in plasma at 25 mg/kg/day, ip administered at 1 hr prior to infection for 14 days relative to control; type: functional, Mammarenavirus lassaense; conditions: route intraperitoneal
Lassa virus [5] = test: Antiviral activity against Lassa virus pseudovirions infected in HEK293T/17 cells at 50 uM after 72 hrs by luciferase reporter gene assay; type: functional, organism-based; conditions: Mammarenavirus lassaense, HEK-293T

NC(=O)c1ncn([C@@H]2O[C@H](CO)[C@@H](O)[C@H]2O)n1 [RIBAVIRIN]
Activity (Lassa virus [1]): 0%

COc1ccc(-n2cnc3cc(NCc4ccc(CN5CCN(C)CC5)cc4)ccc32)cc1
EC50 (Lassa virus [2]): 16000 nM

COc1ccc(-n2cnc3cc(NCc4ccc(CN5CCCCC5)cc4)ccc32)cc1
EC50 (Lassa virus [2]): 1400 nM

COc1ccc(-n2cnc3cc(NCc4ccc(Oc5ccccc5)cc4)ccc32)cc1
EC50 (Lassa virus [2]): 380 nM

COc1ccc(-n2cnc3cc(NCc4ccco4)ccc32)cc1
EC50 (Lassa virus [2]): 1200 nM

CCc1ccc(CNc2ccc3c(c2)ncn3-c2ccc(OC)cn2)cc1
EC50 (Lassa virus [2]): 5.8 nM

COc1ccc(-n2cnc3cc(NCc4ccc(C(C)C)cc4)ccc32)cc1
EC50 (Sabia virus): 21 nM | EC50 (Guanarito virus): 0.44 nM | EC50 (Lassa virus [2]): 1.4 nM | Activity (Lassa virus [3]): 63% | EC50 (Junin virus): 0.62 nM | EC50 (Machupo mammarenavirus): 3.1 nM | fold change (FC) (Lassa virus [4]): 2

CCCCc1ccc(-n2cnc3cc(NCc4ccc(C(C)C)cc4)ccc32)cc1
EC50 (Lassa virus [2]): 4.4 nM

COc1ccc(-n2cnc3cc(N(C)Cc4ccc(C(C)C)cc4)ccc32)cc1
EC50 (Lassa virus [2]): 57 nM

CCc1ccc(CNc2ccc3c(c2)ncn3-c2cnc(OC)nc2)cc1
EC50 (Lassa virus [2]): 450 nM

CC(C)c1ccc(CNc2ccc3c(c2)ncn3-c2ccccc2)cc1
EC50 (Lassa virus [2]): 5.2 nM

COc1ccc(-n2cnc3cc(NCc4ccc(OC(C)(C)C)cc4)ccc32)cc1
EC50 (Lassa virus [2]): 5.2 nM

COc1ccc(-n2cnc3cc(NCc4ccc(CN5CCOCC5)cc4)ccc32)cc1
EC50 (Lassa virus [2]): 790 nM

CCOc1ccc(-n2cnc3cc(NCc4ccc(C)nc4)ccc32)cc1
EC50 (Lassa virus [2]): 240 nM

COc1ccc(-n2cnc3cc(NCc4ccc(C(C)(C)C)cc4)ccc32)cc1
EC50 (Lassa virus [2]): 1.1 nM

CCc1ccc(CNc2ccc3c(c2)ncn3-c2ccc(OC)cc2)cc1
EC50 (Lassa virus [2]): 1.2 nM

CCc1ccc(-n2cnc3cc(NCc4ccc(C(C)C)cc4)ccc32)cc1
EC50 (Lassa virus [2]): 1.9 nM

CNc1ccc2c(c1)ncn2-c1ccc(OC)cc1
Activity (Lassa virus [5]): inactive

CCCCOc1ccc(CNc2ccc3c(c2)ncn3-c2ccc(OC)cc2)cc1
EC50 (Lassa virus [2]): 6 nM

CCc1ccc(CNc2ccc3c(c2)ncn3-c2ccc(OC)nn2)cc1
EC50 (Lassa virus [2]): 81 nM

COc1ccc(-n2cnc3cc(NCc4ccc(Cl)cc4)ccc32)cc1
EC50 (Lassa virus [2]): 47 nM

COc1ccc(-n2cnc3cc(NCc4ccc(Cc5ccccc5)cc4)ccc32)cc1
EC50 (Lassa virus [2]): 46 nM

CCCCOc1ccc(-n2cnc3cc(NCc4ccc(C(C)C)cc4)ccc32)cc1
EC50 (Lassa virus [2]): 5.6 nM

Cc1ccc(CNc2ccc3c(c2)ncn3C2CCCCC2)cc1
EC50 (Lassa virus [2]): 320 nM

COc1ccc(-n2cnc3cc(N(Cc4ccc(C(C)C)cc4)S(=O)(=O)c4ccc(C)cc4)ccc32)cc1
EC50 (Sabia virus): 510 nM | EC50 (Lassa virus [2]): 110 nM | EC50 (Junin virus): 16 nM | EC50 (Machupo mammarenavirus): 40 nM

COc1ccc(-n2cnc3cc(NCc4cccc(OC)c4OC)ccc32)cc1
EC50 (Lassa virus [2]): 160 nM

CC(C)c1ccc(CNc2ccc3ncn(-c4ccc(OC(C)(C)C)cc4)c3c2)cc1
EC50 (Lassa virus [2]): 180 nM

CC(C)c1ccc(CNc2ccc3c(c2)ncn3-c2ccc(OCCc3ccccc3)cc2)cc1
EC50 (Lassa virus [2]): 43 nM

COc1ccc(-n2cnc3cc(N(Cc4ccc(C(C)C)cc4)C(C)=O)ccc32)cc1
EC50 (Lassa virus [2]): 380 nM

COc1ccc(-n2cnc3cc(NCc4cccc(OC)c4)ccc32)cc1
EC50 (Lassa virus [2]): 35 nM

CCCNc1ccc2c(c1)ncn2-c1ccc(OC)cc1
Activity (Lassa virus [5]): inactive

COc1ccc(-n2cnc3cc(NCc4ccccc4O)ccc32)cc1
EC50 (Lassa virus [2]): 310 nM

COc1ccc(-n2cnc3cc(NC(=O)c4ccc(C)cc4)ccc32)cc1
EC50 (Lassa virus [2]): > 50000 nM

CCOc1ccc(-n2cnc3cc(NCc4ccc(CC(=O)O)cc4)ccc32)cc1
EC50 (Lassa virus [2]): 1300 nM

CC(C)c1ccc(CNc2ccc3c(c2)ncn3-c2ccc(Oc3ccccc3)cc2)cc1
EC50 (Lassa virus [2]): 130 nM

CCCCc1ccc(CNc2ccc3c(c2)ncn3-c2ccc(OC)cc2)cc1
EC50 (Lassa virus [2]): 1.5 nM

CC(C)c1ccc(CNc2ccc3c(c2)ncn3-c2ccc(Oc3ccc4ccccc4c3)cc2)cc1
EC50 (Lassa virus [2]): 540 nM

CC(C)c1ccc(CNc2ccc3c(c2)ncn3-c2ccc(OC(C)(C)C)cc2)cc1
EC50 (Lassa virus [2]): 8.6 nM

CCOc1ccc(-n2cnc3cc(CNc4ccc(CC)cc4)ccc32)cc1
EC50 (Sabia virus): 43 nM | EC50 (Lassa virus [2]): 11 nM | EC50 (Junin virus): 5 nM | EC50 (Machupo mammarenavirus): 12 nM

COc1ccc(-n2cnc3cc(NCc4ccc(CN(C)C)cc4)ccc32)cc1
EC50 (Lassa virus [2]): 270 nM

COc1ccc(-n2cnc3cc(NCc4ccc(OCCN(C)C)cc4)ccc32)cc1
EC50 (Lassa virus [2]): 3300 nM

COc1ccc(-n2cnc3cc(NCc4ccc(OC)c(OC)c4)ccc32)cc1
EC50 (Lassa virus [2]): 700 nM

CCc1ccc(CNc2ccc3c(c2)ncn3-c2ccc(OC)nc2)cc1
EC50 (Lassa virus [2]): 32 nM

CC(C)c1ccc(CNc2ccc3c(c2)ncn3-c2ccc(C(C)(C)C)cc2)cc1
EC50 (Lassa virus [2]): 4 nM

CCOc1ccc(CNc2ccc3c(c2)ncn3-c2ccc(OC)cc2)cc1
EC50 (Lassa virus [2]): 4 nM

CC(C)c1ccc(CNc2ccc3c(c2)ncn3-c2ccc(Cc3ccccc3)cc2)cc1
EC50 (Lassa virus [2]): 120 nM

COc1ccc(-n2cnc3cc(NCc4ccccc4OC)ccc32)cc1
EC50 (Lassa virus [2]): 460 nM

COc1ccc(-n2cnc3cc(NCc4cccc5ccccc45)ccc32)cc1
EC50 (Lassa virus [2]): 69 nM

COc1ccc(CNc2ccc3c(c2)ncn3-c2ccc(OC)cc2)cc1
EC50 (Sabia virus): 110 nM | EC50 (Guanarito virus): 5.6 nM | EC50 (Lassa virus [2]): 11 nM | EC50 (Junin virus): 7.7 nM | EC50 (Machupo mammarenavirus): 45 nM

CCOc1ccc(-n2cnc3cc(NCc4ccc(C)cn4)ccc32)cc1
EC50 (Lassa virus [2]): 350 nM

CCOc1ccc(-n2cnc3cc(NCc4cnc(CC)nc4)ccc32)cc1
EC50 (Lassa virus [2]): 450 nM
